One data set has as its target T1, CCR1 receptor (Homo sapiens, UniProt P32246).
T1 construct: host or cells: THP-1
T1 sequence (P32246 1-355): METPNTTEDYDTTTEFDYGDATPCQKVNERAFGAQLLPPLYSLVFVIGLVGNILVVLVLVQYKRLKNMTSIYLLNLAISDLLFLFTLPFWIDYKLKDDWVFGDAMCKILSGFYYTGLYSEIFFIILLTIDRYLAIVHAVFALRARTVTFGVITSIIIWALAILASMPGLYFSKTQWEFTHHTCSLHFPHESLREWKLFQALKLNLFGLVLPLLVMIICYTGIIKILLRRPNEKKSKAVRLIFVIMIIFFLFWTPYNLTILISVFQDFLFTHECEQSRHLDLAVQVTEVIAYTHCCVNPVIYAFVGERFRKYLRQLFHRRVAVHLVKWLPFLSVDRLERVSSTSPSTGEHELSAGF
Kind of data set: In vitro Ca2+-flux assay on human monocytes (THP-1), MIP-1α stimulated. Format: cell-based. The note with it: block of MIP-1α induced Ca2+-flux in THP-1 cells; 2,5-dimethylpiperazine derivatives tested as racemic mixtures. On the procedure:
The binding of Mip-1α at the CCR1 receptor leads to an increase of intracellular calcium levels. The ability of the compounds of the invention to block this biologic response of the CCR1 receptor is determined in the Ca^2+-flux assay.
In Vitro Ca^2+-Flux Assay on Human Monocytes
• 1. Cell Culture: • a) THP-1 (ATCC Cat# TIB202) • b) Tissue culture medium: RPMI 1640 with Ultraglutamine 1 supplemented with 10% (v/v) foetal calf serum. This medium is hereinafter referred to as “growth medium”. • 2. Assay buffer: HBSS (Hanks' balanced salts solution), 20 mM HEPES, 1 mM CaCl2, 1 mM MgCl2, 2.5 mM Probenecid, pH 7.4. • 3. Fluo-4AM (Molecular Probes Cat # F14201) • 4. Pluronic® F-127 (Molecular Probes Cat # P-6867) • 5. The compounds of the invention were dissolved in DMSO. A serial dilution was made and nine concentrations of each compound were screened to generate a dose curve from which the IC50 value was determined. • 6. MIP-1α (Peprotech EC Ltd Cat# 300-08) • 7. Victor^2 1420 (Perkin Elmer) • 8. Microlite™^2+ (Dynex Cat # 7572) Assay Procedure:
THP-1 cells were grown in T-75 cm^2 flasks in growth medium at 37° C. in 5% CO2. The cells were harvested by centrifugation and resuspended in assay buffer. The cells were then loaded with 5 μM Fluo-4 and 0.02% pluronic acid (final concentrations) at 37° C. in 5% CO2 for 30 min. The excess dye was removed by washing with assay buffer. The cells were resuspended and 10^5 cells/well were added in a Microlite plate containing compounds and then incubated for 15 minutes at 37° C. in 5% CO2. The cells were then stimulated with MIP-1α and changes in intracellular free Ca^2+ concentration were measured with a Victor^2.
Using the procedures set forth in the competitive affinity binding assay and the Ca^2+-flux assay, various compounds of the invention were tested for their ability to block Ca^2+-flux (IC50^Ca). The results of some examples and the Compounds A, B, C, and D are shown in Table 2 where all IC50-values are given in nM (nano Molar). Table 2 exemplifies the invention without limiting the scope thereof.

Data set [1] is described as follows: In vivo bioavailability in the mouse (cassette dosing). The conditions noted are these: female SJL/N Tac mice; for half-life / clearance: mouse, nominal dose 1 mg/kg; for half-life: plasma half-life; for clearance: plasma; for F: oral bioavailability, nominal dose 1 mg/kg iv and oral. On the procedure: In Vivo Bioavailability in the Mouse
Female mice (SJL/N Tac) were given a single intravenous or oral dose of a mixture of 5 or 6 compounds per cassette (nominal dose: 1 mg/kg/compound) in a solution containing 0.5% N,N′-dimethylacetamide (DMA) and 15% sulfobutyl ether β-cyclodextrin (Captisol®). Blood samples were taken from one mouse per time point and dose group until 24 hour after respective administration. The dose formulations and plasma concentrations of each compound were determined by LC-MS/MS. The pharmacokinetic parameters were determined by non-compartmental analysis using WinNonlin Professional (version 4.0.1). The elimination rate constant, λ, was estimated by linear regression analysis of the terminal slope of the logarithmic plasma concentration-time curve. The area under the plasma concentration-time curve, AUC0-t, was calculated by using the linear/logarithmic trapezoidal rule. The AUCinf was calculated with the residual area estimated as Cz/λ. The calculated plasma concentration at the last time point, Cz, was obtained from the regression equation. The oral bioavailability (F) was calculated as: Foral=(AUCinf,po/AUCinf,iv)·(Doseiv/Dosepo). Pharmacodynamic Assays
The compounds of the invention show oral bioavailability in the mouse. Using the procedures set forth in the in vivo bioavailability assay, various compounds of the invention were tested for their clearance (CL; L/h/kg), plasma half-life (t1/2; hrs) as well as oral bioavailability (F; %) after administration of the nominal dose of 1 mg/kg of each compound. Table 3 exemplifies the invention, without limiting the scope thereof.

`COc1cccc2cc(C(=O)N3C[C@@H](C)N(Cc4ccc(F)cc4)C[C@H]3C)oc12` (racemic) [Compound A, (cis)-4-(4-Fluorobenzyl)-1-(7-methoxy-benzofuran-2-yl-carbonyl)-2,5-dimethylpiperazine, reference compound]: the IC50 (usually the concentration at which inhibition is half-maximal) at CCR1 receptor was more than 1000 nM.
Consider `C[C@@H]1CN(C(=O)c2cc3cc(Cl)c(Cl)cc3[nH]2)[C@@H](C)CN1Cc1ccc(F)cc1` (racemic) [Compound 3.20, (trans)-(5,6-Dichloro-indol-2-yl-carbonyl)-4-(4-fluorobenzyl)-2,5-dimethylpiperazine], for which the IC50 on CCR1 receptor was 15 nM.
For the compound `C[C@@H]1CN(C(=O)c2cc3cc(Br)ccc3o2)[C@@H](C)CN1Cc1ccc(F)cc1` (racemic) [Compound 3.1, (trans)-1-(5-Bromo-benzofuran-2-yl-carbonyl)-4-(4-fluorobenzyl)-2,5-dimethylpiperazine], in data set [1], the half-life (in general, the time in which the quantity being followed falls by half) is 420 min; the clearance (as a rule, the rate of elimination divided by the concentration) is 15 mL/min/kg; the F worked out at 53%. For the same compound, the 50% inhibitory concentration (IC50) on CCR1 receptor came to 12 nM.
With `Cc1ccc2cc(C(=O)N3C[C@@H](C)N(Cc4ccc(F)cc4)C[C@@H]3C)oc2c1` (racemic) [Compound 3.13, (trans)-4-(4-Fluorobenzyl)-1-(6-methyl-benzofuran-2-yl-carbonyl)-2,5-dimethylpiperazine], on CCR1 receptor, the IC50 came to 20 nM.
The same measure, in the same setting: next, `O=C(c1cc2ccccc2o1)N1CCN(Cc2ccc(Cl)cc2)CC1` [Compound C, 4-(4-chlorobenzyl)-1-(benzofuran-2-yl-carbonyl)-piperazine, reference compound]: more than 1000 nM; `COc1cccc2cc(C(=O)N3C[C@@H](C)N(Cc4ccc(F)cc4)C[C@@H]3C)oc12` (racemic) [Compound D, (trans)-4-(4-Fluorobenzyl)-1-(7-methoxy-benzofuran-2-yl-carbonyl)-2,5-dimethylpiperazine, reference compound]: more than 1000 nM.
Consider `C[C@@H]1CN(C(=O)c2cc3cc(Cl)ccc3o2)[C@@H](C)CN1Cc1ccc(F)cc1` (racemic) [Compound 4.1, (trans)-1-(5-Chloro-benzofuran-2-yl-carbonyl)-4-(4-fluorobenzyl)-2,5-dimethylpiperazine], for which, in data set [1], the half-life is 288 min, the clearance was 43.3 mL/min/kg and the F is on record as 72%.

Values taken from US7339059B2, “Benzofurans and indols” (Active Biotech AB, priority 2004, dated 2008).
